Test results published in PubChem BioAssay AID700 (NMMLSC, 2007).
The source made the active and inactive calls. The rule behind the calls is not given here.

What follows are compounds tested on bacterial quorum sensing reporter inhibition (assay: blockers of quorum-sensing reporter signal in bacteria – dose response (AID 700)).

| SMILES | IC50 |
| --- | --- |
| COc1cccc(Oc2cnc(N)nc2-c2ccc(OC)cc2O)c1 | > 20 µM (inactive) |
| O=C(CSc1n[nH]c(-c2ccco2)n1)Nc1sc2c(c1C(=O)Nc1ccccc1)CCCC2 | 3.32 µM |
| O=C(Nc1nc2c(s1)CCc1ccccc1-2)c1cccs1 | > 20 µM (inactive) |
| CCc1ccc(N/C(SCc2cccc(F)c2)=C(/C#N)C(=O)NCc2ccco2)cc1 | > 20 µM (inactive) |
| CCn1c2ccccc2c2cc(NC(=O)CSc3nnc(C4CC4)n3Cc3ccco3)ccc21 | > 20 µM (inactive) |
| CCc1ccc2[nH]c(=O)c(CN(CCCN3CCOCC3)C(=O)Nc3ccc(Cl)cc3)cc2c1 | > 20 µM (inactive) |
| Cc1nc2ccccn2c1/C(O)=C1\C(=O)C(=O)N(CCCN(C)C)C1c1ccc(F)cc1 (stereo unspecified) | > 20 µM (inactive) |
| CCC(=O)O[C@@H]1CC(=O)O[C@H](C)CC=CC=C[C@@H](O)[C@H](C)C[C@H](CC=O)[C@H](O[C@H]2O[C@H](C)[C@@H](O[C@H]3C[C@@](C)(O)[C@@H](OC(=O)CC)[C@H](C)O3)[C@H](N(C)C)[C@H]2O)[C@H]1OC | 0.55 µM |
| Cn1cc(/C=N/n2cnc3sc4c(c3c2=O)CCCC4)c2ccccc21 | > 20 µM (inactive) |
| O=C(CN1C(=O)CC(c2ccco2)Sc2ccccc21)NCc1ccc2c(c1)OCO2 (stereo unspecified) | 16.5 µM (inactive) |
| N#Cc1c(NC(=O)COC(=O)C2CC3C=CC2C3)oc(-c2ccccc2)c1-c1ccccc1 (stereo unspecified) | 0.68 µM |
| O=C(OCC(O)CO)c1ccccc1Nc1ccnc2cc(Cl)ccc12 (stereo unspecified) | > 20 µM (inactive) |
| c1ccc(-c2ccc(C(c3ccccc3)n3ccnc3)cc2)cc1 (stereo unspecified) | > 20 µM (inactive) |
| Cc1ccc2[nH]c(=O)c(CN(CCCN(C)C)C(=O)Nc3cccc(Cl)c3)cc2c1 | > 20 µM (inactive) |
| CCCCOC(=O)Cn1c(=O)oc2ccc(C)cc21 | > 20 µM (inactive) |
| CC(C)N=c1cc2n(-c3ccc(Cl)cc3)c3ccccc3nc-2cc1Nc1ccc(Cl)cc1 | > 20 µM (inactive) |
| CCOC(=O)C(C)(C)Sc1nc2c(cnn2-c2ccc(C)cc2)c(=O)[nH]1 | > 20 µM (inactive) |
| CC1CCCN(C(C(=O)Nc2ccc3c(c2)OCCO3)c2ccccc2)C1 (stereo unspecified) | > 20 µM (inactive) |
| CCc1ccc2[nH]c(=O)c(CN(CCCN3CCOCC3)C(=O)Nc3ccc(F)cc3)cc2c1 | > 20 µM (inactive) |
| Cc1ccc2[nH]c(=O)c(CN(CCCN(C)C)C(=O)Nc3ccc(Cl)cc3)cc2c1 | 9.03 µM |
| Cc1ccsc1-c1nc(CSCC(=O)N2CCN(c3ccccc3)CC2)c(C)o1 | 12.4 µM (inactive) |
| O=C(c1ccc(Br)o1)N1CCN(c2ccc3nnc(-c4ccccc4)n3n2)CC1 | > 20 µM (inactive) |
| CCCCc1oc2ccccc2c1C(=O)c1cc(I)c(OCCN(CC)CC)c(I)c1 | > 20 µM (inactive) |

| SMILES | IC50 |
| --- | --- |
| CC(C)[C@@]1(NC(=O)[C@@H]2C[C@@H]3c4cccc5[nH]cc(c45)C[C@H]3N(C)C2)O[C@@]2(O)[C@@H]3CCCN3C(=O)[C@H](Cc3ccccc3)N2C1=O | > 20 µM (inactive) |
| CCc1c(C)nc(SCC(=O)Nc2ccc(Br)cc2)[nH]c1=O | > 20 µM (inactive) |
| O=C(NCC(c1cccnc1)N1CCN(c2ccccc2F)CC1)c1cccc(Cl)c1 (stereo unspecified) | 1.97 µM |
| COc1cc2[nH]c(=O)n(CCC(=O)N3CCN(c4cc(Cl)ccc4C)CC3)c(=O)c2cc1OC | > 20 µM (inactive) |
| COC(=O)c1ccc(CSc2nc3c(cnn3-c3ccc(Cl)cc3)c(=O)[nH]2)o1 | > 20 µM (inactive) |
| Cc1ccc(-c2nc(CS(=O)CC(=O)NCCC(C)C)c(C)o2)cc1 (stereo unspecified) | > 20 µM (inactive) |
| Fc1ccc(-c2nnc3ccc(N4CCc5ccccc5C4)nn23)cc1 | > 20 µM (inactive) |
| O=C(O)c1ccccc1Nc1cccc(C(F)(F)F)c1 | > 20 µM (inactive) |
| O=C(NCCN1CCN(c2ccccc2)CC1)c1cccn2c(=O)c3ccccc3nc12 | > 20 µM (inactive) |
| CC1CCCN(C(C(=O)Nc2ccc3c(c2)OCO3)c2ccccc2)C1 (stereo unspecified) | 1.25 µM |
| COCCn1nnnc1C(c1cc2cc(OC)ccc2[nH]c1=O)N1CCC(Cc2ccccc2)CC1 (stereo unspecified) | > 20 µM (inactive) |
| O=C(NC(=O)c1cccc(F)c1)OC[C@@H]1CCCN2CCCC[C@H]12 | > 20 µM (inactive) |
| N#Cc1c(NC(NC(=O)c2ccco2)C(=O)c2ccccc2)sc2c1CCCC2 (stereo unspecified) | > 20 µM (inactive) |
| CCCn1c(=S)[nH]c2cc(C(=O)N3CCN(c4ccccc4OC)CC3)ccc2c1=O | > 20 µM (inactive) |
| O=C(O)CCc1cc(I)c(Oc2ccc(O)c(I)c2)c(I)c1 | 1.78 µM |
| COC(=O)c1[nH]nc2c1C(=O)N(C1CCCCC1)C2=O | 12.7 µM (inactive) |
| Cc1cc(NC(=O)C2CCCC2)nc2c1c(=O)oc1ccccc12 | 18.4 µM (inactive) |
| CC(C)CCOP(=O)(c1ccc(N(C)C)cc1)C(O)c1ccccc1F (stereo unspecified) | > 20 µM (inactive) |
| COc1ccc(Nc2nc(-c3sc(N)nc3C)cs2)cc1 | > 20 µM (inactive) |
| CCc1c(C)sc(NC(=O)c2cc(C)on2)c1C#N | > 20 µM (inactive) |
| CC(C)Cc1cc(C(=O)Nc2sc3c(c2C#N)CCCC3)no1 | > 20 µM (inactive) |
| CCc1oc2ccccc2c1C(=O)c1ccc(O)cc1 | 3.28 µM |
| CCOC(=O)C1=C(C)NC(C)=C(C(=O)OC)C1c1cccc(Cl)c1Cl (stereo unspecified) | > 20 µM (inactive) |
